Values after ≈ are worked out from the molar mass of the structure shown.
Key:
Assay in all cases: In vitro antifungal activity, microbroth dilution MIC
Assay type in all cases: cell-based
Candida albicans C1-2 = settings: 4 to 48 hours; for Minimal inhibitory concentration(MIC), C. albicans C1-2: RPMI-1640, 35° C., no growth observed; for Minimal inhibitory concentration (MIC): C. albicans C1-2, RPMI-1640, 35° C.
Method: (§1) In vitro antifungal activities of the inventive antifungal compounds were evaluated using the test strains shown in Table VIII by the following microbroth dilution method which is a modified version of the procedure recommended by National Committee for Clinical Laboratory Standards(see National Committee for Clinical Laboratory Standards, 1992, Reference methods for broth dilution antifungal susceptibility testing of yeasts, Proposed standard M27-P, National Committee for clinical laboratory standards, Villanova, Pa; and National Committee for Clinical Laboratory Standards, 1995, Reference methods for broth dilution antifungal susceptibility testing of yeasts. Tentative standard M27-T, National Committee for clinical laboratory standards, Villanova, Pa).
(§2) Sabourad Dextrose Agar(Difco) was used as a culture medium, and RPMI-1640 broth(Sigma. Co. w/L-glutamine, wo/NaHCO3)(0.165 M MOPS, pH 7.0), as a dilution medium.
(§3) Each of the test strains were subcultured in Sabourad Dextrose Agar medium twice and a stain sample was taken from prominent colonies and suspended in sterile physiological saline solution in a cap tube. The turbidity of the suspension was adjusted to that of the Mcfarland 0.5 standard sample(approximately 10^6 CFU/ml). Then the suspension was diluted 500-fold with sterile RPMI-1640 liquid medium to 2×10^3 CFU/ml.
(§4) Each of the test compounds(the compounds obtained in Examples 1 to 150 and comparative compounds, i.e., fluconazole(FCZ) and itraconazole (ICZ)), was dissolved in DMSO to give a stock solution having a concentration of 4000 μg/ml and the stock solution was successively diluted to obtain test solutions having test compound concentrations of 200, 100, 50, 25, 12.5, 6.25, 3.13, 1.56, 0.78, 0.39, 0.20 and 0.10 μg/ml, respectively.
(§5) 0.1 ml portion of the test solutions were added to the wells of a sterile 96 well plate. Then, 0.1 ml portion of each of the test strain solutions were added successively to the wells and the plate was incubated at 35° C. for 4 to 48 hours.
(§6) Minimal inhibitory concentration(MIC) of each compound was defined as the concentration of the test compound where no growth of the strain could be observed.

[1] = system: Candida tropicalis A. 13803; settings: 4 to 48 hours; for Minimal inhibitory concentration(MIC), C. tropicalis A. 13803: RPMI-1640, 35° C., no growth observed; for Minimal inhibitory concentration (MIC): C. tropicalis A. 13803, RPMI-1640, 35° C.
Method: as §1, §2, §3, §4, §5, §6

[2] = system: Trichophyton mentagrophytes B. 32663; settings: 4 to 48 hours; for Minimal inhibitory concentration(MIC), T. mentagrophytes B. 32663: RPMI-1640, 35° C., no growth observed; for Minimal inhibitory concentration (MIC): T. mentagrophytes B. 32663, RPMI-1640, 35° C.
Method: as §1, §2, §3, §4, §5, §6

[3] = system: Aspergillus furnigatus B. 19119; settings: 4 to 48 hours; for Minimal inhibitory concentration(MIC), A furnigatus B. 19119: RPMI-1640, 35° C., no growth observed; for Minimal inhibitory concentration (MIC): A furnigatus B. 19119, RPMI-1640, 35° C.
Method: as §1, §2, §3, §4, §5, §6

[4] = system: Cryptococcus neoformans A. 34144; settings: 4 to 48 hours; for Minimal inhibitory concentration(MIC), Cry. neoformans A. 34144: RPMI-1640, 35° C., no growth observed; for Minimal inhibitory concentration (MIC): Cry. neoformans A. 34144, RPMI-1640, 35° C.
Method: as §1, §2, §3, §4, §5, §6

[5] = system: Candida pseudotropicalis K. 11658; settings: 4 to 48 hours; for Minimal inhibitory concentration(MIC), C. pseudotropicalis K. 11658: RPMI-1640, 35° C., no growth observed; for Minimal inhibitory concentration (MIC): C. pseudotropicalis K. 11658, RPMI-1640, 35° C.
Method: as §1, §2, §3, §4, §5, §6

[6] = system: Torulopsis glabrata B. 16205; settings: 4 to 48 hours; for Minimal inhibitory concentration(MIC), T. glabrata B. 16205: RPMI-1640, 35° C., no growth observed; for Minimal inhibitory concentration (MIC): T. glabrata B. 16205, RPMI-1640, 35° C.
Method: as §1, §2, §3, §4, §5, §6

[7] = system: Cryptococcus neoformans IFM. 40092; settings: 4 to 48 hours; for Minimal inhibitory concentration(MIC), Cry. neoformans IFM. 40092: RPMI-1640, 35° C., no growth observed; for Minimal inhibitory concentration (MIC): Cry. neoformans IFM. 40092, RPMI-1640, 35° C.
Method: as §1, §2, §3, §4, §5, §6

[8] = system: Aspergillus niger A. 16404; settings: 4 to 48 hours; for Minimal inhibitory concentration(MIC), A. niger A. 16404: RPMI-1640, 35° C., no growth observed; for Minimal inhibitory concentration (MIC): A. niger A. 16404, RPMI-1640, 35° C.
Method: as §1, §2, §3, §4, §5, §6

Candida krusei K. 11655 = settings: 4 to 48 hours; for Minimal inhibitory concentration(MIC), C. krusei K. 11655: RPMI-1640, 35° C., no growth observed; for Minimal inhibitory concentration (MIC): C. krusei K. 11655, RPMI-1640, 35° C.
Method: as §1, §2, §3, §4, §5, §6

[9] = system: Candida albicans IFO. 1385; settings: 4 to 48 hours; for Minimal inhibitory concentration(MIC), C. albicans IFO. 1385: RPMI-1640, 35° C., no growth observed; for Minimal inhibitory concentration (MIC): C. albicans IFO. 1385, RPMI-1640, 35° C.
Method: as §1, §2, §3, §4, §5, §6

[10] = system: Trichophyton mentagrophytes A. 9129; settings: 4 to 48 hours; for Minimal inhibitory concentration(MIC), T. mentagrophytes A. 9129: RPMI-1640, 35° C., no growth observed; for Minimal inhibitory concentration (MIC): T. mentagrophytes A. 9129, RPMI-1640, 35° C.
Method: as §1, §2, §3, §4, §5, §6

[11] = system: Candida parapsitosis A. 7330; settings: 4 to 48 hours; for Minimal inhibitory concentration(MIC), C. parapsitosis A. 7330: RPMI-1640, 35° C., no growth observed; for Minimal inhibitory concentration (MIC): C. parapsitosis A. 7330, RPMI-1640, 35° C.
Method: as §1, §2, §3, §4, §5, §6

[12] = system: Cryptococcus neoformans B. 42419; settings: 4 to 48 hours; for Minimal inhibitory concentration(MIC), Cry. neoformans B. 42419: RPMI-1640, 35° C., no growth observed; for Minimal inhibitory concentration (MIC): Cry. neoformans B. 42419, RPMI-1640, 35° C.
Method: as §1, §2, §3, §4, §5, §6

[13] = system: Candida albicans A. 10231; settings: 4 to 48 hours; for Minimal inhibitory concentration (MIC): C. albicans A. 10231, RPMI-1640, 35° C.; for Minimal inhibitory concentration(MIC), C. albicans A. 10231: RPMI-1640, 35° C., no growth observed
Method: as §1, §2, §3, §4, §5, §6

Row | Compound | Minimal inhibitory concentration(MIC), C. albicans C1-2 (Candida albicans C1-2) [µg/mL] | Minimal inhibitory concentration(MIC), C. tropicalis A. 13803 [1] [µg/mL] | Minimal inhibitory concentration(MIC), T. mentagrophytes B. 32663 [2] [µg/mL] | Minimal inhibitory concentration(MIC), A furnigatus B. 19119 [3] [µg/mL] | Minimal inhibitory concentration(MIC), Cry. neoformans A. 34144 [4] [µg/mL] | Minimal inhibitory concentration(MIC), C. pseudotropicalis K. 11658 [5] [µg/mL] | Minimal inhibitory concentration(MIC), T. glabrata B. 16205 [6] [µg/mL] | Minimal inhibitory concentration(MIC), A. niger A. 16404 [8] [µg/mL] | Minimal inhibitory concentration(MIC), C. krusei K. 11655 (Candida krusei K. 11655) [µg/mL] | Minimal inhibitory concentration(MIC), C. albicans IFO. 1385 [9] [µg/mL] | Minimal inhibitory concentration(MIC), T. mentagrophytes A. 9129 [10] [µg/mL] | Minimal inhibitory concentration(MIC), C. parapsitosis A. 7330 [11] [µg/mL] | Minimal inhibitory concentration(MIC), Cry. neoformans B. 42419 [12] [µg/mL] | Minimal inhibitory concentration (MIC) (Candida albicans C1-2) [µg/mL] | Minimal inhibitory concentration (MIC) [1] [µg/mL] | Minimal inhibitory concentration (MIC) [2] [µg/mL] | Minimal inhibitory concentration (MIC) [3] [µg/mL] | Minimal inhibitory concentration (MIC) [4] [µg/mL] | Minimal inhibitory concentration (MIC) [5] [µg/mL] | Minimal inhibitory concentration (MIC) [6] [µg/mL] | other results
1 | Cc1ccc(C(=C(F)N2CCN(c3ccc(OCC4COC(Cn5ccnc5)(c5ccc(Cl)cc5Cl)O4)cc3)CC2)C(F)(F)F)cc1 (mixture of isomers) [Ex. 126] | >100 | >100 | 6.25 | >100 | 0.78 | 1.56 | >100 | >100 | 3.13 | 1.56 | 12.5 | 3.13 | 0.78 | – | – | – | – | – | – | – | Minimal inhibitory concentration(MIC), Cry. neoformans IFM. 40092 [7]: ≦0.10 μg/ml
2 | Cc1cc(C)cc(C(=C(F)OCC2COC(Cn3ccnc3)(c3ccc(Cl)cc3Cl)O2)C(F)(F)F)c1 (stereo not drawn) [Ex. 24] | – | – | – | – | – | – | – | – | – | – | – | – | – | 6.25 (≈ 11.5 µM) | 25.0 (≈ 45.8 µM) | 6.25 (≈ 11.5 µM) | 50.0 (≈ 91.7 µM) | 0.78 (≈ 1.43 µM) | 100 (≈ 183 µM) | 12.5 (≈ 22.9 µM) | Minimal inhibitory concentration (MIC) [7]: 0.39 µg/mL (≈ 0.715 µM); Minimal inhibitory concentration (MIC) [8]: 100 µg/mL (≈ 183 µM); Minimal inhibitory concentration (MIC) (Candida krusei K. 11655): >100 µg/mL; Minimal inhibitory concentration (MIC) [9]: 0.78 µg/mL (≈ 1.43 µM); Minimal inhibitory concentration (MIC) [10]: 12.5 µg/mL (≈ 22.9 µM); Minimal inhibitory concentration (MIC) [11]: >100 µg/mL; Minimal inhibitory concentration (MIC) [13]: 6.25 µg/mL (≈ 11.5 µM); Minimal inhibitory concentration (MIC) [12]: 1.56 µg/mL (≈ 2.86 µM)
3 | FC(Oc1ccc(OCC2COC(Cn3ccnc3)(c3ccc(F)cc3F)O2)cc1)=C(c1ccc2c(c1)OCO2)C(F)(F)F (mixture of isomers) [Ex. 112] | 12.5 | 100 | 3.13 | >100 | 1.56 | 25.0 | 50.0 | >100 | >100 | 1.56 | 6.25 | >100 | 1.56 | – | – | – | – | – | – | – | Minimal inhibitory concentration(MIC), Cry. neoformans IFM. 40092 [7]: 0.39 µg/mL; Minimal inhibitory concentration(MIC), C. albicans A. 10231 [13]: 25.0 µg/mL
4 | FC(OCC1COC(Cn2ccnc2)(c2ccc(Cl)cc2Cl)O1)=C(c1cccs1)C(F)(F)F (mixture of isomers) [Ex. 35] | – | – | – | – | – | – | – | – | – | – | – | – | – | 25.0 | 100 | 6.25 | 100 | 1.56 | >100 | 25.0 | Minimal inhibitory concentration (MIC) [7]: 0.78 µg/mL; Minimal inhibitory concentration (MIC) [8]: 100 µg/mL; Minimal inhibitory concentration (MIC) (Candida krusei K. 11655): >100 µg/mL; Minimal inhibitory concentration (MIC) [9]: 1.56 µg/mL; Minimal inhibitory concentration (MIC) [10]: 25.0 µg/mL; Minimal inhibitory concentration (MIC) [11]: >100 µg/mL; Minimal inhibitory concentration (MIC) [13]: 25.0 µg/mL; Minimal inhibitory concentration (MIC) [12]: 1.56 µg/mL
5 | FC(=Cc1ccc2c(c1)OCO2)OCC1COC(Cn2ccnc2)(c2ccc(F)cc2F)O1 (mixture of isomers) [Ex. 46] | – | – | – | – | – | – | – | – | – | – | – | – | – | 25.0 | 50.0 | 0.20 | 1.56 | 0.78 | 12.5 | 12.5 | Minimal inhibitory concentration (MIC) [7]: ≦0.10 μg/ml; Minimal inhibitory concentration (MIC) [8]: 12.5 µg/mL; Minimal inhibitory concentration (MIC) (Candida krusei K. 11655): 25.0 µg/mL; Minimal inhibitory concentration (MIC) [9]: ≦0.10 μg/ml; Minimal inhibitory concentration (MIC) [10]: 0.39 µg/mL; Minimal inhibitory concentration (MIC) [11]: 25.0 µg/mL; Minimal inhibitory concentration (MIC) [12]: 0.78 µg/mL
6 | CCc1ccc(C(=C(F)Oc2ccc(OCC3COC(Cn4ccnc4)(c4ccc(Cl)cc4Cl)O3)cc2)C(F)(F)F)cc1 (mixture of isomers) [Ex. 95] | >100 | >100 | 50.0 | >100 | 3.13 | >100 | >100 | >100 | >100 | 6.25 | 50.0 | >100 | 6.25 | – | – | – | – | – | – | – | Minimal inhibitory concentration(MIC), C. albicans A. 10231 [13]: >100 µg/mL

From patent US6376497B1, “Antifungal azole derivatives having a fluorinated vinyl group and process for preparing same” (Korea Research Institute of Chemical Technology, priority 1999, dated 2002)
